Assay results taken from PMC12133300, “The C-terminal structure of the N^6-methyladenosine deaminase YerA and its role in deamination” (Biochemical Journal, 2025).

Key:
[1] = biological target: T1, YerA (Bsu06560) (Bacillus subtilis, UniProt O34909); experiment: LC-Q-TOF-MS detection of inosine product; type: biochemical; conditions: metal-reconstituted holoenzyme, 5 h, 37 °C, 5 mM ligand; apo form without reconstitution inactive
T1 construct: full-length (Met1-Arg580), pET-28a(+), E. coli BL21(DE3), N-terminal His-tag cleaved by PreScission protease; monomer; assayed as apo or metal-reconstituted form
T1 sequence (O34909 whole entry): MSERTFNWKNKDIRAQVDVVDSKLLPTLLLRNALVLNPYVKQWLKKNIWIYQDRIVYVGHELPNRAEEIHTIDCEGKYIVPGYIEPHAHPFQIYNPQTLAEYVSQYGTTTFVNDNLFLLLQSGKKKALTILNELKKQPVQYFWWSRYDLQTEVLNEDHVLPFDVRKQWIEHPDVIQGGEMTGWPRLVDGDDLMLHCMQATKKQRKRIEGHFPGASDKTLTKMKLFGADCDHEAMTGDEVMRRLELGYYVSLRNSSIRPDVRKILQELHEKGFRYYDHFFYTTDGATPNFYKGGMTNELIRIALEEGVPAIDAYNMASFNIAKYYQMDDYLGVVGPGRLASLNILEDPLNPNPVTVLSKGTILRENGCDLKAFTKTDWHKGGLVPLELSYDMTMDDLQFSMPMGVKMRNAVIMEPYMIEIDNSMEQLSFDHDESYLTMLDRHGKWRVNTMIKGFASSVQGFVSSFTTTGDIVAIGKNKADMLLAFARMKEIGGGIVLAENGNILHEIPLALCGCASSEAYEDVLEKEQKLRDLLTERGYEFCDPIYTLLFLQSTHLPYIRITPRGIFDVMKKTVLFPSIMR

[2] = biological target: T1, YerA (Bsu06560); experiment: thermal shift assay (SYPRO Orange); type: binding; conditions: apo-YerA (without metal reconstitution) 15 uM, 3 mM ligand

Tm shift [2]: 3 °C
SMILES: CNc1ncnc2c1ncn2[C@@H]1O[C@H](CO)[C@@H](O)[C@H]1O [N^6-mAdo, N^6-methyladenosine]
LC-Q-TOF-MS detection of inosine product [1]: YerA deaminated the favored substrate N^6-mAdo to Ino after a 5-h reaction
